From patent publication US20230145835A1, “Modulators of Alpha-4-beta-7 Integrin and MAdCAM” (48HD Biopharma Inc., priority 2021, published 2023)
pIC50: −log10 of the molar value. Numbered stars: 1 amine (or outer) side, 2 acyl side, 3 side chain; on linkers, the order of the positions; unused ones are H or OH. Bridge positions count the residues as written; N and C are the ends. Square brackets hold non-standard residues; d marks the D form. Peptide text beside a SMILES is read from it. X3 = O=C(/C=N/OCCCCCCOc1cc(C[*:2])cc(C[*:3])c1)[*:1]; X1 = O=C(C=NOCCCCCCOc1cc(C[*:2])cc(C[*:3])c1)[*:1]; dMet(O) = CS(=O)CC[C@@H](N)C(=O)O; tBuAla = CC(C)(C)C[C@H](N)C(=O)O; aThr = C[C@H](O)[C@H](N)C(=O)O; Cba = N[C@@H](CC1CCC1)C(=O)O; Nle = CCCC[C@H](N)C(=O)O

These compounds were tested against T1, rh-integrin α4β7/LPAM-1 (Homo sapiens, UniProt P13612+P26010) (assay: α4β7-MadCAM Competition ELISA (Example 4)). Settings: Table 3 Representative compounds; inhibition of MAdCAM binding to coated α4β7; read-out: IC50.
T1 sequence (P13612 34-977 limits assumed): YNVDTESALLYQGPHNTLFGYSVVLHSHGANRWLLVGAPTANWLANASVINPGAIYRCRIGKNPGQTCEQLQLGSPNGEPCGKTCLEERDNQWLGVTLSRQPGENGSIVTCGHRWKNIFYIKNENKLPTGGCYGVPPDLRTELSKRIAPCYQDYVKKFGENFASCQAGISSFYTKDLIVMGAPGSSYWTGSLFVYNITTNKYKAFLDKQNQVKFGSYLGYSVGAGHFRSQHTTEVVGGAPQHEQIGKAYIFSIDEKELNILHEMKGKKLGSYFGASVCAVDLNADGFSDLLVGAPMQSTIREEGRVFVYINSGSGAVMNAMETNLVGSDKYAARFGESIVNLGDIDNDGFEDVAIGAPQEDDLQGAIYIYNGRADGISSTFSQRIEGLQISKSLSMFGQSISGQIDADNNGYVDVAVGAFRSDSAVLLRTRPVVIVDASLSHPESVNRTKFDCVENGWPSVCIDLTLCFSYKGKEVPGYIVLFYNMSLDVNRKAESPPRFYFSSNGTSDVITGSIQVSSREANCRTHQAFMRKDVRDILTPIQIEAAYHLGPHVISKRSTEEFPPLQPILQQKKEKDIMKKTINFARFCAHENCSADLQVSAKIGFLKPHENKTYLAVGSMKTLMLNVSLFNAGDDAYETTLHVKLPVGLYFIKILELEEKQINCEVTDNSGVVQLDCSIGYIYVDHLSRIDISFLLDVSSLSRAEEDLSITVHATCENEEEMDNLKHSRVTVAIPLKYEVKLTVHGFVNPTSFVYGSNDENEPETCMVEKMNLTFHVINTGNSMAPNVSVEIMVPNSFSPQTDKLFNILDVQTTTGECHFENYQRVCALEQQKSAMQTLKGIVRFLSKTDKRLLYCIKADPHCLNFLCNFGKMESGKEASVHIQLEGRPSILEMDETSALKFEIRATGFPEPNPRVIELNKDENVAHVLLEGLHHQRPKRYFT
T1 sequence (P26010 20-723 limits assumed): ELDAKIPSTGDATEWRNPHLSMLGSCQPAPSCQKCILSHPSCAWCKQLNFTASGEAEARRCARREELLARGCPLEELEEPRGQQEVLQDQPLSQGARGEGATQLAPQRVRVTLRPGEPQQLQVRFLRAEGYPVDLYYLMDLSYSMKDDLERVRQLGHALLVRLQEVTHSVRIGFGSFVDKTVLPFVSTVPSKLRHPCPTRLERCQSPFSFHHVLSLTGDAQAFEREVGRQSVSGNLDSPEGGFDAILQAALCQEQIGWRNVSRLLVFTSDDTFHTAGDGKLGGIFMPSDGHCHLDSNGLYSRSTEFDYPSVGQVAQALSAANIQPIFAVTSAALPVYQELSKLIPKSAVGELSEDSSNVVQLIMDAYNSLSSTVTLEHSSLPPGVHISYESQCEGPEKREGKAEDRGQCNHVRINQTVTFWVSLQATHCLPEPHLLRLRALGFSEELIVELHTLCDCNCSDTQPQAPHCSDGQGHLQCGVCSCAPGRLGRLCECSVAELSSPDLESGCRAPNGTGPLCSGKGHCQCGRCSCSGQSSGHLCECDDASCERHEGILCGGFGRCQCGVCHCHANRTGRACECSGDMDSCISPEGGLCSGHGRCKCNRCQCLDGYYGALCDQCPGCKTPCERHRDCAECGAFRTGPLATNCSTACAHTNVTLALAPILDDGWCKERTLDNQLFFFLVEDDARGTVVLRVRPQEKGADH
Format: binding
Experimental: After washing with wash buffer, 200 μL assay buffer was added to each well and incubated for one hour at 28° C. After another wash with wash buffer, 100 μL of a MAdCAM and peptide mixture in assay buffer was added to each well and incubated for one hour at 28° C., followed by washing with wash buffer.
For `CC[C@H](C)[C@@H]1NC(=O)[C@H](CC(=O)O)NC(=O)[C@H](CCSC)NC(=O)[C@@H]2CCCN2C(=O)[C@@H]2CSCc3cc(cc(c3)OCCCCCCO/N=C/C(=O)N[C@@H](CCCNC(=N)N)C(=O)N2)CSC[C@@H](C(N)=O)NC(=O)[C@H](CCC(=O)O)NC(=O)[C@H](CCC(N)=O)NC(=O)[C@H](Cc2c[nH]c3ccccc23)NC1=O` [compound 16] (RCPMDIWQEC-NH2; linker N-2-10 via X3), the pIC50 was 6.57.
`CC(C)[C@@H]1NC(=O)[C@H](CC(=O)O)NC(=O)[C@H](CC(C)(C)C)NC(=O)[C@@H]2CCCN2C(=O)[C@@H]2CSCc3cc(cc(c3)OCCCCCCO/N=C/C(=O)N[C@@H](CCCNC(=N)N)C(=O)N2)CSC[C@@H](C(N)=O)NC(=O)[C@H](CCC(=O)O)NC(=O)CNC(=O)[C@H](Cc2c[nH]c3ccccc23)NC1=O` [compound 58, TSL6- SRCP{tBuAla} DVWGEC] (RCP[tBuAla]DVWGEC-NH2; linker N-2-10 via X3) gave a pIC50 of 5.40.
In the case of `CSCC[C@@H]1NC(=O)[C@@H]2CCCN2C(=O)[C@@H]2CSCc3cc(cc(c3)OCCCCCCO/N=C/C(=O)N[C@@H](C)C(=O)N2)CSC[C@@H](C(N)=O)NC(=O)[C@H](CCC(=O)O)NC(=O)CNC(=O)[C@H](C)NC(=O)[C@H](C(C)C)NC(=O)[C@H](CC(=O)O)NC1=O` [compound 61, TSL6- SACPMDVAGEC] (ACPMDVAGEC-NH2; linker N-2-10 via X3), the pIC50 was 5.22.
`CCCC[C@@H]1NC(=O)[C@@H]2CCCN2C(=O)[C@@H]2CSCc3cc(cc(c3)OCCCCCCC(=O)NCC(=O)N[C@@H](C)C(=O)N2)CSC[C@@H](C(N)=O)NC(=O)[C@H](CCC(=O)O)NC(=O)[C@H](CCC(N)=O)NC(=O)[C@H](Cc2c[nH]c3ccccc23)NC(=O)[C@H](C(C)C)NC(=O)[C@H](CC(=O)O)NC1=O` (stereo in doubt) [compound 33, TSLC7- GACP{Nle} DVWQEC] showed a pIC50 of 6.13.
`C[C@@H]1NC(=O)[C@H](CC(=O)O)NC(=O)[C@@H](CC[S+](C)[O-])NC(=O)[C@@H]2CCCN2C(=O)[C@@H]2CSCc3cc(cc(c3)OCCCCCCO/N=C/C(=O)N[C@@H](CCC(N)=O)C(=O)N2)CSC[C@@H](C(N)=O)NC(=O)[C@H]([C@@H](C)O)NC(=O)[C@@H]2CCCN2C1=O` (stereo partly shown) [compound 67, TSL6-SQCP{Ox-Met}DAPTC] (QCP[dMet(O)]DAPTC-NH2; linker N-2-9 via X3) showed a pIC50 of 4.80.
With `C[C@@H](O)[C@@H]1NC(=O)[C@H](CC(=O)O)NC(=O)[C@@H]2CCCN2C(=O)[C@H](Cc2ccc(O)cc2)NC(=O)[C@@H]2CSCc3cc(cc(c3)OCCCCCCO/N=C/C(=O)N[C@@H](CCC(=O)O)C(=O)N2)CSC[C@@H](C(N)=O)NC(=O)[C@H](Cc2cnc[nH]2)NC(=O)[C@H](Cc2ccc(O)cc2)NC1=O` [compound 71, TSL6- SECYPDTYHC] (ECYPDTYHC-NH2; linker N-2-9 via X3) the pIC50 was 4.70.
`CSCC[C@@H]1NC(=O)[C@H](CCCNC(=N)N)NC(=O)[C@@H]2CSCc3cc(cc(c3)OCCCCCCO/N=C/C(=O)N[C@@H]([C@H](C)O)C(=O)N2)CSC[C@@H](C(N)=O)NC(=O)[C@H](CC(=O)O)NC(=O)[C@H](CCC(N)=O)NC(=O)[C@H](Cc2ccccc2)NC(=O)[C@H](CC(=O)O)NC1=O` [compound 106, TSL6- STCRMDFQDC] ([aThr]CRMDFQDC-NH2; linker N-2-9 via X3) was tested, and the pIC50 was 3.30.
With `CSCC[C@@H]1NC(=O)[C@H](CCC(N)=O)NC(=O)[C@@H]2CSCc3cc(cc(c3)OCCCCCCO/N=C/C(=O)N[C@@H](Cc3ccccc3)C(=O)N2)CSC[C@@H](C(N)=O)NC(=O)[C@H](C)NC(=O)[C@H](CCCCN)NC(=O)[C@H](CCC(=O)O)NC(=O)[C@H](Cc2ccccc2)NC1=O` [compound 102, TSL6- SFCQMFEKAC] (FCQMFEKAC-NH2; linker N-2-9 via X3) the pIC50 was 3.75.
In the case of `CC(=O)N[C@H]1CSSC[C@@H](C(N)=O)NC(=O)[C@H](CC(C)C)NC(=O)[C@H]([C@@H](C)O)NC(=O)[C@H](CC(=O)O)NC(=O)[C@H](CO)NC(=O)[C@H](CCCNC(=N)N)NC1=O` [compound 5] (Ac-CRSDTLC-NH2; disulfide 1-7), the pIC50 was 6.91.
For `CC(C)(C)C[C@@H]1NC(=O)[C@H](CC(=O)O)NC(=O)[C@H](CC2CCC2)NC(=O)[C@@H]2CCCN2C(=O)[C@@H]2CSCc3cc(cc(c3)OCCCCCCO/N=C/C(=O)N[C@@H](CCCNC(=N)N)C(=O)N2)CSC[C@@H](C(N)=O)NC(=O)[C@H](CCC(=O)O)NC(=O)[C@H](CCC(N)=O)NC(=O)[C@H](Cc2c[nH]c3ccccc23)NC1=O` [compound 56, TSL6-SRCP{CbA}D {tBuAla}WQEC] (RCP[Cba]D[tBuAla]WQEC-NH2; linker N-2-10 via X3), the pIC50 was 5.41.
With `CCCC[C@@H]1NC(=O)[C@H](CO)NC(=O)[C@@H]2CSSC[C@@H](C(=O)N[C@@H](Cc3c[nH]c4ccccc34)C(=O)N[C@@H](CCC(N)=O)C(N)=O)NC(=O)[C@H](CC(C)C)NC(=O)[C@@H]([C@H](C)O)NC(=O)[C@H](CC(=O)O)NC(=O)[C@H](CO)NC(=O)[C@H](CCCNC(=N)N)NC(=O)[C@H](CSCC(=O)N[C@@H](CCCNC(=N)N)C(=O)N2)NC(=O)[C@H](CC(C)C)NC(=O)[C@H](CC(=O)O)NC1=O` [compound 76, Disulfide- RCS{Nle}DICRS DTLCWQ] ({CH2CO}-RCS[Nle]DLCRSD[dT]LCWQ-NH2; disulfide 2-13; thioether N-7) the pIC50 was 4.46.
`CC(C)C[C@@H]1NC(=O)[C@H](C)NC(=O)[C@@H]2CSCc3cc(cc(c3)OCCCCCCO/N=C/C(=O)N[C@@H](CCCCN)C(=O)N2)CSC[C@@H](C(N)=O)NC(=O)[C@H](CCC(=O)O)NC(=O)[C@H](Cc2ccc(O)cc2)NC(=O)[C@@H]2CCCN2C(=O)[C@H]([C@@H](C)O)NC(=O)[C@H](CC(=O)O)NC1=O` (stereo in doubt) [compound 53, TSL6- SKCALDTPYEC] was tested, and the pIC50 was 5.57.
`CCCC[C@@H]1NC(=O)[C@@H]2CCCN2C(=O)[C@@H]2CSCc3cc(cc(c3)OCCCCCCO/N=C/C(=O)N[C@@H](CCCNC(=N)N)C(=O)N2)CSC[C@@H](C(N)=O)NC(=O)[C@H](CCC(=O)O)NC(=O)CNC(=O)[C@H](C)NC(=O)[C@H](C(C)C)NC(=O)[C@H](CC(=O)O)NC1=O` [compound 15] (RCP[Nle]DVAGEC-NH2; linker N-2-10 via X3) was tested, and the pIC50 was 6.58.
Work on `CC(C)C[C@@H]1NC(=O)[C@@H]2CCCN2C(=O)[C@@H]2CSCc3cc(cc(c3)OCCCCCCO/N=C/C(=O)N[C@@H](CCCCN)C(=O)N2)CSC[C@@H](C(N)=O)NC(=O)[C@H](CCC(=O)O)NC(=O)[C@H](Cc2ccc(O)cc2)NC(=O)[C@@H]2CCCN2C(=O)[C@H](CC(C)C)NC(=O)[C@H](CC(=O)O)NC1=O` [compound 19] (KCPLDLPYEC-NH2; linker N-2-10 via X3) yielded a pIC50 of 6.44.

Same assay, conditions: competition ELISA, 4 μg/mL α4β7 coated, MAdCAM and peptide mixture, 28° C.; read-out: IC50
`CC[C@H](C)[C@@H]1NC(=O)[C@H](C)NC(=O)[C@H](CCSC)NC(=O)[C@@H]2CCCN2C(=O)[C@@H]2CSCc3cc(cc(c3)OCCCCCCON=CC(=O)N[C@@H](CCC(N)=O)C(=O)N2)CSC[C@@H](C(=O)O)NC(=O)[C@H]([C@@H](C)O)NC(=O)[C@@H]2CCCN2C1=O` [SEQ ID NO: 49] (QCPMAIPTC-OH; linker N-2-9 via X1) was tested, and the pIC50 was < 3.30.
`CCCC[C@@H]1NC(=O)[C@H](CO)NC(=O)[C@H](CCCNC(=N)N)NC(=O)[C@@H]2CSCC(=O)N[C@@H](CCCNC(=N)N)C(=O)N[C@@H](CSSC[C@@H](C(=O)N[C@@H](Cc3c[nH]c4ccccc34)C(=O)N[C@@H](CCC(N)=O)C(N)=O)NC(=O)[C@H]([C@@H](C)CC)NC(=O)[C@H](CC(=O)O)NC1=O)C(=O)N[C@@H](CO)C(=O)N[C@@H](CCCC)C(=O)N[C@@H](CC(=O)O)C(=O)N[C@@H]([C@@H](C)CC)C(=O)N2` [SEQ ID NO: 76] ({CH2CO}-RCS[Nle]DICRS[Nle]DICWQ-NH2; disulfide 2-13; thioether N-7) showed a pIC50 of 3.58.
